Mass density and refractive index data for one compound are collected here from the NIST ThermoML archive (doi:10.1016/j.tca.2010.11.025).

Numbers after ± are expanded uncertainties.

The conditions of series [1]: 298.15 K; 101.33 kPa; Liquid; Pycnometric method.
Series [2] in a line: refractive index (Na D-line) (dimensionless). Conditions: 298.15 K; 101.33 kPa; Liquid; Standard Abbe refractometry.

Usually mass density stands for mass per unit of volume. One may read the refractive index as the speed of light in vacuum divided by its phase velocity in the sample.

In the case of `CN1CCCN(C)C1=O` [1,3-dimethyl-3,4,5,6-tetrahydro-2(1H)-pyrimidinone], in series [1], the mass density is recorded as 1060.06 ± 0.96 kg/m3. For the same compound, in series [2], the refractive index stood at 1.4878 ± 0.0007.
